The results in this text go back to patent US20240299559A1, “COMPOUNDS THAT MEDIATE PROTEIN DEGRADATION AND METHODS OF USE THEREOF” (Monte Rosa Therapeutics, Inc., priority 2021, published 2024).

The structures appear in SMILES notation. Where only a bound is given, the exact number is not on record here.

One assay has as its target CRBN-DDB1 (Homo sapiens, UniProt Q96SW2). Briefly: Compound binding to CRBN by HTRF assay. Conditions: CRBN-DDB1 2.5 nM, Cy5-Thalidomide 100 nM probe; Ki from geometric mean of IC50 by Cheng-Prustoff transformation. On the procedure: Compound activity was monitored in a Homogenous Time-Resolved Fluorescence (HTRF) assay using 1-[5-({2-[2-(2-{[2-(2,6-dioxopiperidin-3-yl)-1,3-dioxo-2,3-dihydro-1H-isoindol-4-yl]oxy}acetamido)ethoxy]ethyl}carbamoyl)pentyl]-3,3-dimethyl-2-[(1E,3E)-5-[(2E)-1,3,3-trimethyl-5-sulfo-2,3-dihydro-1H-indol-2-ylidene]penta-1,3-dien-1-yl]-3H-indol-1-ium-5-sulfonate as a fluorescent probe. Biochemical assays were conducted in Greiner white 384 well HiBase plates (Cat. No 784075-25) in 10 μL total volume. A one pot detection solution of CRBN-DDB1 (2.5 nM), Anti-His Terbium Cryptate Gold (1×, PerkinElmer Cat. #: 61HI2TLB), and Cy5-Thalidomide (100 nM, Tenova Cat.: T52461) was prepared in 20 mM HEPES, 20 mM NaCl, 0.2 mM TCEP, 0.2 mM EDTA, and 0.005% Tween20 was dispensed to each assay plate. Compounds were stored in dry, ambient temperatures at 10 mM. A 10-point, 1:3 dilution series was prepared from 10 mM stock concentrations in Echo-compatible LDV plates. 10 nL of each compound dilution series was dispensed into assays wells using an Echo 650 (Labcyte inc. USA). 10 nL of 10 mM Lenalidomide was transferred into the active-control wells for the assay and 10 nL of DMSO was transferred into the neutral-control wells. The assay was then allowed to incubate for 30 min at ambient temperature after transferring compound. Plate measurements were taken on a Pherastar FSX (BMG Labtech, Germany) using the HTRF Red filter (Ex. 337 nm, em1:620 nm, em2:665 nm) (Flashes: 50, Integration time: 60-400 us, Z-height: 10 mm, Ratio-multipler: 10,000). The HTRF signal was then subsequently normalized to the neutral and active controls. Analysis and IC50 values were derived using KNIME analytics (KNIME Zurich) transformation and fitting within Collaborative Drug Discovery (Collaborative Drug Discovery USA). Ki was derived from the geometric mean of the IC50 values using the Cheng-Prustoff transformation.

In another assay the target is T1, CDK2 (Homo sapiens, UniProt P24941).
T1 construct: HEK293 clonal lines with CRISPR KI HiBiT tag on CDK2 proteins; host or cells: HEK293 clonal line with CRISPR knock-in HiBiT on CDK2, stably expressing LgBiT
Briefly: CDK2 HiBiT assay (degradation, Dmax). Format: cell-based. To be noted: HEK293 clonal lines with CRISPR KI HiBiT tag on CDK2, stably expressing LgBiT; 24 hours incubation. On the procedure: HEK293 clonal lines with CRISPR KI HiBiT tag on CDK2 proteins and stably expressing LgBiT protein were obtained from Promega (Madison, WI). Cells were plated at 5000 cells per well using Multiflo (BioTek) in 384-well white solid bottom plates (Corning, 3570BC) in 25 ul volume in DMEM media (DMEM, high glucose, HEPES, no phenol red (ThermoFisher Scientific, 21063029)) containing 10% FBS (Corning, 35-075-CV), 1% Penicillin/Streptomycin (ThermoFisher Scientific, 15140-122). Cells were incubated for 16 hours at 37° C., 5% CO2. 75 nL of a compound at 30 μM were dosed into the plate using an Echo® 650 liquid handler (Labcyte). Cells were incubated at 37° C., 5% CO2 for 24 hours. 5 ul of HiBiT Lysis Reagent (Promega, N3030) is added using Combi Multidrop (ThermoFisher Scientific), plates are incubated for 15′ at 37° C., 5% CO2 and then signal was read on a Pherastar FSX using “LUM plus” optic module.
Analysis was performed in Scinamic (Scinamic, Cambridge, MA). Luminescence response (R) was calculated by the formula: response=100*(S−N)/(P−N) where S is the signal of the well, N and P the mean negative and positive control values respectively of the same plate. The luminescence response was then fitted in Scinamic using a 3-parameter agonist logistic fit (hillslope=1, EC50>0, top/bottom unconstrained).

Sequence of CRBN-DDB1 (Q96SW2 whole entry): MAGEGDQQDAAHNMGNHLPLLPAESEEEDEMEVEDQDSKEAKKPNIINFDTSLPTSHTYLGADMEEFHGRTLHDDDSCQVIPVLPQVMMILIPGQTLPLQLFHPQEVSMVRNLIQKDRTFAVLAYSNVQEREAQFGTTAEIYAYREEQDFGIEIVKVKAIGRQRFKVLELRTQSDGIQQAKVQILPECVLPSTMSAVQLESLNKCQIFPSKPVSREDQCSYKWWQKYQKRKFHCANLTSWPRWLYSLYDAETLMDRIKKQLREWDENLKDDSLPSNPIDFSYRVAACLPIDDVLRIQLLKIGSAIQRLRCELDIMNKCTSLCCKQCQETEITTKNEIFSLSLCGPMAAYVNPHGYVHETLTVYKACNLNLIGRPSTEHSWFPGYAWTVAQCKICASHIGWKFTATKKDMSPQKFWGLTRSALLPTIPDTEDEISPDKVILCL
Sequence of CRBN-DDB1 (Q16531 whole entry partner): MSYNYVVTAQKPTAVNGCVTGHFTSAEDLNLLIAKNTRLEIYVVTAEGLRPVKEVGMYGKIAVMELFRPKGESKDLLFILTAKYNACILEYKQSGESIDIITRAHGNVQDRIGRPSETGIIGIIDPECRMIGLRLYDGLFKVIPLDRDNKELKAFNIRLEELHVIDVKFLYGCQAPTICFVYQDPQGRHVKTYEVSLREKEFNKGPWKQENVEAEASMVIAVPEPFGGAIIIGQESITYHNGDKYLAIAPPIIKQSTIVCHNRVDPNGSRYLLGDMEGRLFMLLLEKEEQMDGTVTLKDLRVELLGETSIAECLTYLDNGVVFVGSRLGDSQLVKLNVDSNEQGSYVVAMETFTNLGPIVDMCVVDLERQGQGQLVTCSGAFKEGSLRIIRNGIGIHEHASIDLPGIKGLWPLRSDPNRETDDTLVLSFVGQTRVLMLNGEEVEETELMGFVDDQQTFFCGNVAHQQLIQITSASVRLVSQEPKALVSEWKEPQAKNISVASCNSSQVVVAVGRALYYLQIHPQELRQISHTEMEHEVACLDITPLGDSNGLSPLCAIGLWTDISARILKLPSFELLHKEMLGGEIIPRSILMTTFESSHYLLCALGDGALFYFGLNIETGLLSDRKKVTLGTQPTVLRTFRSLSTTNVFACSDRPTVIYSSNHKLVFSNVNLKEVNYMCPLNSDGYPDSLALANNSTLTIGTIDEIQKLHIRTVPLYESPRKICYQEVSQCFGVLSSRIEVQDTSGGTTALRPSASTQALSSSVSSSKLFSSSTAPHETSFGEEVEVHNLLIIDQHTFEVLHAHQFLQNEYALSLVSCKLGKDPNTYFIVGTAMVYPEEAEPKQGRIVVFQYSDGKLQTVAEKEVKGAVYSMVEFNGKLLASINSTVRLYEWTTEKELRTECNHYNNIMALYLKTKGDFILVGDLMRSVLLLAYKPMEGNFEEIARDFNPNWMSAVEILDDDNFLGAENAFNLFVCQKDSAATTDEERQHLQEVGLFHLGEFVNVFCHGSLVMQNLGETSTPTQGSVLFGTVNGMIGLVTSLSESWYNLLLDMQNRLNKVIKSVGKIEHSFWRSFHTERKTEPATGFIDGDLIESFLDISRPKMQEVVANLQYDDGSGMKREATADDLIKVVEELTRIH

Usually Ki stands for the equilibrium dissociation constant of an inhibitor or competing ligand from its target. For orientation: Dmax means the greatest extent of degradation seen. Lower therefore signals shallow degradation. At CRBN-DDB1, `O=C1CCC(N2Cc3ccc(CCNC(=O)OCc4ccc(OC5CCOCC5)nc4)cc3C2=O)C(=O)N1` (stereo not drawn) [Compound 1, (6-((tetrahydro-2H-pyran-4-yl)oxy)pyridin-3-yl)methyl (2-(2-(2,6-dioxopiperidin-3-yl)-3-oxoisoindolin-5-yl)ethyl)carbamate] had an inhibitory constant (Ki) of 100 to 1000 nM. On CDK2, this molecule displayed a Dmax of 10 to 50%.

Molecule `O=C1CCC(N2Cc3ccc(COC(=O)NCc4ccc(OC5CCOCC5)nc4)cc3C2=O)C(=O)N1` (stereo not drawn) [Compound 2, (2-(2,6-dioxopiperidin-3-yl)-3-oxoisoindolin-5-yl)methyl((6-((tetrahydro-2H-pyran-4-yl)oxy)pyridin-3-yl)methyl)carbamate] displayed a Ki on CRBN-DDB1 of 100 to 1000 nM. At CDK2, this molecule yielded a Dmax of 10 to 50%.

On CRBN-DDB1, `O=C1CCC(N2Cc3ccc(CNC(=O)OCc4ccc(OC5CCOCC5)cc4)cc3C2=O)C(=O)N1` (stereo not drawn) [Compound 3, 4-((tetrahydro-2H-pyran-4-yl)oxy)benzyl((2-(2,6-dioxopiperidin-3-yl)-3-oxoisoindolin-5-yl)methyl)carbamate] yielded a Ki of 100 to 1000 nM. At CDK2, this molecule registered a maximal degradation (Dmax) of 10 to 50%.

Take `O=C1CCC(N2Cc3ccc(CNC(=O)OCc4cccc(-c5ccc(F)cc5)n4)cc3C2=O)C(=O)N1` (stereo not drawn) [Compound 4, (6-(4-fluorophenyl)pyridin-2-yl)methyl((2-(2,6-dioxopiperidin-3-yl)-3-oxoisoindolin-5-yl)methyl)carbamate]: on CRBN-DDB1, the Ki fell in the range of 100 to 1000 nM. Also, on CDK2, the Dmax is 10 to 50%.

Take `O=C1CCC(N2Cc3ccc(CNC(=O)OCc4ccnc(-c5ccc(F)cc5)c4)cc3C2=O)C(=O)N1` (stereo not drawn) [Compound 5, (2-(4-fluorophenyl)pyridin-4-yl)methyl((2-(2,6-dioxopiperidin-3-yl)-3-oxoisoindolin-5-yl)methyl)carbamate]: at CRBN-DDB1, the Ki lay within 100 to 1000 nM. The molecule further showed a Dmax on CDK2 of 10 to 50%.

Regarding `O=C1CCC(N2Cc3ccc(CNC(=O)OCc4cccc(-c5ccccc5)c4)cc3C2=O)C(=O)N1` (stereo not drawn) [Compound 6, [1,1′-biphenyl]-3-ylmethyl ((2-(2,6-dioxopiperidin-3-yl)-3-oxoisoindolin-5-yl)methyl)carbamate], on CRBN-DDB1, the Ki is ≤ 100 nM. Besides, the Dmax at CDK2 was in the range of 10 to 50%.

With `Cc1ccc(-c2cccc(COC(=O)NCc3ccc4c(c3)C(=O)N(C3CCC(=O)NC3=O)C4)c2)cc1` (stereo not drawn) [Compound 7, (4′-methyl-[1,1′-biphenyl]-3-yl)methyl ((2-(2,6-dioxopiperidin-3-yl)-3-oxoisoindolin-5-yl)methyl)carbamate], the Ki on CRBN-DDB1 fell in the range of 100 to 1000 nM. The molecule also displayed a Dmax on CDK2 of 10 to 50%.

At CRBN-DDB1, `O=C1CCC(N2Cc3ccc(CNC(=O)OCc4cccc(-c5ccc(Cl)cc5)c4)cc3C2=O)C(=O)N1` (stereo not drawn) [Compound 8, (4′-chloro-[1,1′-biphenyl]-3-yl)methyl ((2-(2,6-dioxopiperidin-3-yl)-3-oxoisoindolin-5-yl)methyl)carbamate] gave a Ki of 100 to 1000 nM. Also, the Dmax on CDK2 is 10 to 50%.

`O=C1CCC(N2Cc3ccc(CNC(=O)OCc4cccc(-c5ccc(C(F)(F)F)cc5)c4)cc3C2=O)C(=O)N1` (stereo not drawn) [Compound 9, (4′-(trifluoromethyl)-[1,1′-biphenyl]-3-yl)methyl((2-(2,6-dioxopiperidin-3-yl)-3-oxoisoindolin-5-yl)methyl)carbamate] came in with a Ki at CRBN-DDB1 of 100 to 1000 nM. The Dmax on CDK2 fell in the range of 50 to 80%.

Consider `O=C1CCC(N2Cc3ccc(CNC(=O)OCc4cccc(-c5cccc(F)c5)c4)cc3C2=O)C(=O)N1` (stereo not drawn) [Compound 10, (3′-fluoro-[1,1′-biphenyl]-3-yl)methyl ((2-(2,6-dioxopiperidin-3-yl)-3-oxoisoindolin-5-yl)methyl)carbamate], for which the Ki at CRBN-DDB1 lay in the range of 100 to 1000 nM. In addition, the Dmax at CDK2 lay within 50 to 80%.

On CRBN-DDB1, `O=C1CCC(N2Cc3ccc(CNC(=O)OCc4cccc(-c5cccc(C(F)(F)F)c5)c4)cc3C2=O)C(=O)N1` (stereo not drawn) [Compound 11, (3′-(trifluoromethyl)-[1,1′-biphenyl]-3-yl)methyl ((2-(2,6-dioxopiperidin-3-yl)-3-oxoisoindolin-5-yl)methyl)carbamate] had a Ki of 100 to 1000 nM. The Dmax at CDK2 lay within 50 to 80%.

Consider `Cc1c(COC(=O)NCc2ccc3c(c2)C(=O)N(C2CCC(=O)NC2=O)C3)cccc1-c1ccccc1` (stereo not drawn) [Compound 12, (2-methyl-[1,1′-biphenyl]-3-yl)methyl ((2-(2,6-dioxopiperidin-3-yl)-3-oxoisoindolin-5-yl)methyl)carbamate], for which the Ki at CRBN-DDB1 is ≤ 100 nM. The same molecule showed a Dmax at CDK2 of 50 to 80%.

For `O=C1CCC(N2Cc3ccc(CNC(=O)OCc4cncc(-c5ccccc5)c4)cc3C2=O)C(=O)N1` (stereo not drawn) [Compound 13, (5-phenylpyridin-3-yl)methyl ((2-(2,6-dioxopiperidin-3-yl)-3-oxoisoindolin-5-yl)methyl)carbamate], the Ki at CRBN-DDB1 was ≤ 100 nM. The molecule also came in with a Dmax on CDK2 of 10 to 50%.

As for `O=C1CCC(N2Cc3ccc(CNC(=O)OCc4cc(-c5ccccc5)ccn4)cc3C2=O)C(=O)N1` (stereo not drawn) [Compound 14, (4-phenylpyridin-2-yl)methyl ((2-(2,6-dioxopiperidin-3-yl)-3-oxoisoindolin-5-yl)methyl)carbamate], the inhibition constant Ki on CRBN-DDB1 was in the range of 100 to 1000 nM. Also, the Dmax at CDK2 fell in the range of 10 to 50%.

On to `O=C1CCC(N2Cc3ccc(CNC(=O)OCc4cccc(-c5cccnc5)c4)cc3C2=O)C(=O)N1` (stereo not drawn) [Compound 15, 3-(pyridin-3-yl)benzyl ((2-(2,6-dioxopiperidin-3-yl)-3-oxoisoindolin-5-yl)methyl)carbamate], for which, on CRBN-DDB1, the inhibition constant (Ki) was ≤ 100 nM. The molecule also displayed a Dmax on CDK2 of 10 to 50%.

For `CC(NC(=O)OCc1ccc(OC2CCOCC2)nc1)c1ccc2c(c1)C(=O)N(C1CCC(=O)NC1=O)C2` (stereo not drawn) [Compound 16, (6-((tetrahydro-2H-pyran-4-yl)oxy)pyridin-3-yl)methyl (1-(2-(2,6-dioxopiperidin-3-yl)-3-oxoisoindolin-5-yl)ethyl)carbamate], at CRBN-DDB1, the inhibition constant (Ki) is 100 to 1000 nM. For the same molecule, the Dmax at CDK2 is 10 to 50%.

`O=C1CCC(N2Cc3ccc(CNC(=O)OCc4ccc(N5CCCC5=O)cc4)cc3C2=O)C(=O)N1` (stereo not drawn) [Compound 17, 4-(2-oxopyrrolidin-1-yl)benzyl ((2-(2,6-dioxopiperidin-3-yl)-3-oxoisoindolin-5-yl)methyl)carbamate] displayed an inhibitory constant (Ki) on CRBN-DDB1 of 100 to 1000 nM. Besides, on CDK2, the Dmax fell in the range of 10 to 50%.

`O=C1CCC(N2Cc3ccc(CNC(=O)OCc4ccc(C5CCCO5)cc4)cc3C2=O)C(=O)N1` (stereo not drawn) [Compound 18] registered a Ki on CRBN-DDB1 of 100 to 1000 nM. The same molecule yielded a Dmax on CDK2 of 10 to 50%.

As for `O=C1CCC(N2Cc3ccc(CNC(=O)OCc4ccc([C@H]5CCC[C@@H]5O)cc4)cc3C2=O)C(=O)N1` (stereo partly drawn) [Compound 19, 4-((1R, 2S)-2-hydroxycyclopentyl) benzyl ((2-(2,6-dioxopiperidin-3-yl)-3-oxoisoindolin-5-yl)methyl)carbamate], the Ki at CRBN-DDB1 lay within 100 to 1000 nM. The molecule further had a Dmax on CDK2 of 10 to 50%.

The molecule `O=C1CCC(N2Cc3ccc(CNC(=O)OCc4ccccc4)cc3C2=O)C(=O)N1` (stereo not drawn) [Compound 20, benzyl ((2-(2,6-dioxopiperidin-3-yl)-3-oxoisoindolin-5-yl)methyl)carbamate] gave an inhibitory constant (Ki) at CRBN-DDB1 of 100 to 1000 nM. Further, on CDK2, the Dmax is 10 to 50%.

In the case of `O=C(CCc1cccc(-c2ccc(F)cc2)c1)NCc1ccc2c(c1)C(=O)N(C1CCC(=O)NC1=O)C2` (stereo not drawn) [Compound 21, N-((2-(2,6-dioxopiperidin-3-yl)-3-oxoisoindolin-5-yl)methyl)-3-(4′-fluoro-[1,1′-biphenyl]-3-yl)propanamide], on CRBN-DDB1, the Ki was ≤ 100 nM. In addition, the Dmax on CDK2 is ≤ 10%.
